These are literature values, as cited in US20240277615A1, “SELF-EMULSIFYING COMPOSITION, PRODUCTION METHODS AND USES THEREOF” (Universidade Da Beira Interior, priority 2021, published 2024).

Data set [1] relates to plasma protein.

As to `CC(C)CCC[C@@H](C)[C@H]1CC[C@H]2[C@@H]3CC=C4C[C@@H](O)CC[C@]4(C)[C@H]3CC[C@]12C` [cholesterol], the “Log P” value is on record as 7.

For `CCC(C)(C)C(=O)O[C@H]1C[C@@H](C)C=C2C=C[C@H](C)[C@H](CC[C@@H]3C[C@@H](O)CC(=O)O3)[C@H]21` [simvastatin], in data set [1], the plasma protein binding is 94-98%.

As usually defined, the Log P is a log measure of how a compound divides between an organic and an aqueous phase.
